Assay [1] addresses T1, AtPPO1 V365L Y426V L479N (SEQ ID NO.126) (Arabidopsis thaliana, UniProt P55826, L479N/V365L/Y426V).
T1 construct: made in house; host or cells: E. coli BL21 (DE3) hemG, crude extract
T1 sequence (P55826 35-537 V365L/Y426V/L479N): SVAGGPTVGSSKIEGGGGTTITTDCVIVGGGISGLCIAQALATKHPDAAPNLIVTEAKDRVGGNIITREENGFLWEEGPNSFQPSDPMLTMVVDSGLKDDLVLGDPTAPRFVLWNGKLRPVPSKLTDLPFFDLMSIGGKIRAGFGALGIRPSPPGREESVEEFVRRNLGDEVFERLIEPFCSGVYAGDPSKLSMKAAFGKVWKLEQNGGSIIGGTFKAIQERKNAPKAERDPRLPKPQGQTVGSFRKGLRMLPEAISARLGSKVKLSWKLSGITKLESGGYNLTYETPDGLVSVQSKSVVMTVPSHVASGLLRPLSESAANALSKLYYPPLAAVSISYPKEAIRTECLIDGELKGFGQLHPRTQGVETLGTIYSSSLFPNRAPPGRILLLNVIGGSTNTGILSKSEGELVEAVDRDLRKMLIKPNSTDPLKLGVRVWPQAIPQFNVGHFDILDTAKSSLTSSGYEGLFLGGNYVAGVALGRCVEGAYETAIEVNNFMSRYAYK
As to the kind of experiment: fluorescent Protoporphyrinogen Oxidase assay, crude extract. It is filed as biochemical. The settings on record: read-out: percentage inhibition.

Assay [2] deals with T2, AtPPO1 Y426M T461Q L479M (SEQ ID NO.132) (Arabidopsis thaliana, UniProt P55826, L479M/T461Q/Y426M).
T2 construct: made in house; host or cells: E. coli BL21 (DE3) hemG, crude extract
T2 sequence (P55826 35-537 Y426M/T461Q/L479M): T1 sequence (P55826 35-537 V365L/Y426V/L479N) with L331V, V392M, T427Q, N445M
Described as above. It is filed as biochemical. The note with it: read-out: percentage inhibition.

Each structure is given as a SMILES string. Numbering of substitutions follows the chain as printed.

By inhibition is commonly meant the relative decrease from the control value, in per cent. On to `C#CCN1C(=O)C(F)(F)Oc2cc(F)c(-n3c(=O)n(C)c(=S)n(C)c3=O)cc21` [Herbicide B, trifludimoxazin], for which, in assay [1], the inhibition at 0.1 ppm came to 98%, the inhibition at 1 ppm came to 100%, the inhibition at 10 ppm was found to be 100% and the inhibition at 100 ppm stood at 100%. In addition, in assay [2], the inhibition at 0.1 ppm amounted to 100%, the inhibition at 1 ppm came to 100%, the inhibition at 10 ppm was 100% and the inhibition at 100 ppm is 100%.

Regarding `CCOC(=O)C1(C)CC(c2cc(-n3c(=O)cc(C(F)(F)F)n(C)c3=O)c(F)cc2Cl)=NO1` (stereo not shown) [Herbicide C, 3-(2-chloro-4-fluoro-5-(3-methyl-2,6-dioxo-4-trifluoromethyl-3,6-dihydropyrimidin-1(2H)-yl)phenyl)-5-methyl-4,5-dihydroisoxazole-5-carboxylic acid ethyl ester], in assay [1], the inhibition at 0.1 ppm amounted to 4%, the inhibition at 1 ppm was 44%, the inhibition at 10 ppm came to 82% and the inhibition at 100 ppm was 93%. Also, in assay [2], the inhibition at 0.1 ppm was determined as 26%, the inhibition at 1 ppm is 54%, the inhibition at 10 ppm was determined as 75% and the inhibition at 100 ppm was determined as 100%.

Regarding `CCOC(=O)COc1ncccc1Oc1cc(-n2c(=O)cc(C(F)(F)F)n(C)c2=O)c(F)cc1Cl` [Herbicide A, epyrifenacil], in assay [1], the inhibition at 0.1 ppm came out at 0%, the inhibition at 1 ppm is 36%, the inhibition at 10 ppm is 73% and the inhibition at 100 ppm worked out at 90%. In assay [2], the inhibition at 0.1 ppm was 10%, the inhibition at 1 ppm was determined as 51%, the inhibition at 10 ppm is 77% and the inhibition at 100 ppm was 100%.

On to `CCOC(=O)[C@]1(C)CC(c2cc(-n3c(=O)n(C)c(=S)n(C)c3=O)c(F)cc2Cl)=NO1` [Herbicide D, ethyl (5S)-3-[2-chloro-5-(3,5-dimethyl-2,6-dioxo-4-thioxo-1,3,5-triazinan-1-yl)-4-fluoro-phenyl]-5-methyl-4H-isoxazole-5-carboxylate], for which, in assay [1], the inhibition at 0.1 ppm was found to be 12%, the inhibition at 1 ppm worked out at 33%, the inhibition at 10 ppm was determined as 89% and the inhibition at 100 ppm was determined as 98%. Moreover, in assay [2], the inhibition at 0.1 ppm was 58%, the inhibition at 1 ppm was determined as 79%, the inhibition at 10 ppm was found to be 95% and the inhibition at 100 ppm came to 100%.

Regarding `CC(C)N(C)S(=O)(=O)NC(=O)c1cc(-n2c(=O)cc(C(F)(F)F)n(C)c2=O)c(F)cc1Cl` [Herbicide E, saflufenacil], in assay [1], the inhibition at 0.1 ppm was determined as 0%, the inhibition at 1 ppm was found to be 22%, the inhibition at 10 ppm amounted to 77% and the inhibition at 100 ppm was found to be 94%. Moreover, in assay [2], the inhibition at 0.1 ppm was 0%, the inhibition at 1 ppm was 26%, the inhibition at 10 ppm is 70% and the inhibition at 100 ppm was 100%.

Values taken from patent US20260297542A1, “HERBICIDE RESISTANT PLANTS” (SYNGENTA CROP PROTECTION AG, priority 2023, published 2026).
